Experimental data: US20250108038A1 (priority 2023, published 2025)
Where “and” joins values, the source holds several entries; their conditions need not be identical. Identical values can stand only once.

Test system: Long Evans rats
Test: Behavioral satiety sequence (BSS)
Assay type: in vivo, Long Evans rat
Source text: The Behavioural Satiety Sequence (BSS) is a technique used to evaluate physiological satiety. It is based on the expression of a sequence of behaviors including eating, grooming, locomotor activity, followed by resting, which are typically observed in rodents post-ingestion (Halford et al, 1998, Pharmacology Biochemistry and Behaviour. 61(2): 159-168). The BSS is a widely used model for determining the effects of novel pharmaceuticals on food intake and measures of satiety in rodents (Oliveira et al, 2011, Revista de Nutrição. 24(4) 619-628), and to discriminate the cause of reduced food intake following pharmacological manipulation. For example, treatments that may reduce food intake by non-specific mechanisms, such as immobility, malaise, and taste adulteration, will disrupt this sequence (Halford et al, 1998, Pharmacology Biochemistry and Behaviour. 61(2): 159-168).
Specifically, 12 male Long-Evans rats were food-deprived for 22 h with a 2 h feeding period each day. Rats were trained to consume daily food during the 2 h period over 25 days. The testing phase was initiated once the rats consistently consumed 16-18 g of food per day with ≤10% variance in amount of feed consumed. Feeding took place in designated individual boxes in a quiet room separate from the housing room. Continuous remote monitoring via video camera during feeding was used to assess the BSS. Food consumption was measured by weighing the total available food before and after the 2 h feeding window, correcting for spillage. Lorcaserin (1 mg/kg) was included as a reference control (Higgins et al, 2011, Neuropsychopharmacology. 37(5): 1177-1191). Subjects were tested using a repeated-measures, Latin square design with 2-3 days wash-out between treatment cycles.
On scheduled test days, animals were monitored remotely via video camera during the feeding access period. The occurrence of four mutually exclusive behaviors (eating/drinking, grooming, active, rest) were individually scored. Over the 2 h feeding period, behaviors were assessed every 30 seconds. Scores were compiled into 23 5 min timebins (timebin 24 was removed due to early removal of animals) and the frequency of each behavior within each timebin was calculated to determine a temporal frequency of each measure (Rodgers et al, 2010, Pharmacology Biochemistry and Behaviour. 97: 3-14). Percentage time was plotted for each behavioral sequence in each timebin to compare between treatment groups (Higgins et al, 2011, Neuropsychopharmacology. 37(5): 1177-1191).

[1] = 0.3 mg/kg, raw score per animal LT-1 to LT-12
[2] = 1 mg/kg, raw data per animal (LT-1 to LT-12)

SMILES: Clc1ccc(C2(OCC3OCCO3)c3ccccc3C3=NCCN32)cc1 (stereo not drawn) [Compound I-19]
- BSS scoring A (active), Time Bin 16 (75-80 TOTAL) [1]: 0 (6×) and 2 (3×) and 3 (3×)
- BSS scoring A (active), Time Bin 17 (80-85 TOTAL) [1]: 0 (3×) and 2 and 1 (5×) and 3 and 5 (2×)
- BSS scoring A (active), Time Bin 18 (85-90 TOTAL) [1]: 4 and 0 (5×) and 8 and 2 (2×) and 1 and 5 (2×)
- BSS scoring E (eating/drinking), Time Bin 13 (60-65 TOTAL) [1]: 10 (3×) and 7 (4×) and 8 (3×) and 9 and 6
- BSS scoring E (eating/drinking), Time Bin 14 (65-70 TOTAL) [1]: 9 (5×) and 6 and 10 (2×) and 7 and 8 (2×) and 2
- BSS scoring E (eating/drinking), Time Bin 15 (70-75 TOTAL) [1]: 9 and 6 (4×) and 4 and 1 and 7 (3×) and 5 and 3
- BSS scoring E (eating/drinking), Time Bin 16 (75-80 TOTAL) [1]: 10 (4×) and 6 (2×) and 9 and 8 and 7 (3×) and 5
- BSS scoring E (eating/drinking), Time Bin 17 (80-85 TOTAL) [1]: 10 (3×) and 5 and 4 (4×) and 7 (2×) and 9 (2×)
- BSS scoring E (eating/drinking), Time Bin 18 (85-90 TOTAL) [1]: 4 and 9 (3×) and 8 and 0 and 6 (2×) and 10 and 3 (2×) and 7
- BSS scoring G (grooming), Time Bin 13 (60-65 TOTAL) [1]: 0 (8×) and 1 (4×)
- BSS scoring G (grooming), Time Bin 14 (65-70 TOTAL) [1]: 0 (9×) and 1 (3×)
- BSS scoring G (grooming), Time Bin 15 (70-75 TOTAL) [1]: 0 (7×) and 1 (5×)
- BSS scoring G (grooming), Time Bin 16 (75-80 TOTAL) [1]: 0 (11×) and 1
- BSS scoring G (grooming), Time Bin 17 (80-85 TOTAL) [1]: 0 (8×) and 2 (2×) and 1 (2×)
- BSS scoring G (grooming), Time Bin 18 (85-90 TOTAL) [1]: 2 (2×) and 1 (8×) and 0 (2×)
- BSS scoring R (resting), Time Bin 13 (60-65 TOTAL) [1]: 0 (7×) and 2 (3×) and 1 (2×)
- BSS scoring R (resting), Time Bin 14 (65-70 TOTAL) [1]: 0 (7×) and 1 (4×) and 2
- BSS scoring R (resting), Time Bin 15 (70-75 TOTAL) [1]: 1 (3×) and 0 (6×) and 3 and 2 (2×)
- BSS scoring R (resting), Time Bin 16 (75-80 TOTAL) [1]: 0 (6×) and 2 (3×) and 1 (3×)
- BSS scoring R (resting), Time Bin 17 (80-85 TOTAL) [1]: 0 (7×) and 1 (2×) and 4 and 3 and 2
- BSS scoring R (resting), Time Bin 18 (85-90 TOTAL) [1]: 0 (6×) and 1 (5×) and 2
- BSS scoring A (active), Time Bin 19 (90-95 TOTAL), AVG (1 mg/kg, AVG of LT-1 to LT-12): 0.14
- BSS scoring A (active), Time Bin 20 (95-100 TOTAL), AVG (1 mg/kg, AVG of LT-1 to LT-12): 0.10
- BSS scoring A (active), Time Bin 21 (100-105 TOTAL), AVG (1 mg/kg, AVG of LT-1 to LT-12): 0.14
- BSS scoring A (active), Time Bin 22 (105-110 TOTAL), AVG (1 mg/kg, AVG of LT-1 to LT-12): 0.15
- BSS scoring A (active), Time Bin 23 (110-115 TOTAL), AVG (1 mg/kg, AVG of LT-1 to LT-12): 0.18
- BSS scoring A (active), Time Bin 24 (115-120 TOTAL), AVG (1 mg/kg, AVG of LT-1 to LT-12): 0.15
- BSS scoring E (eating/drinking), Time Bin 19 (90-95 TOTAL), AVG (1 mg/kg, AVG of LT-1 to LT-12): 0.58
- BSS scoring E (eating/drinking), Time Bin 20 (95-100 TOTAL), AVG (1 mg/kg, AVG of LT-1 to LT-12): 0.73
- BSS scoring E (eating/drinking), Time Bin 21 (100-105 TOTAL), AVG (1 mg/kg, AVG of LT-1 to LT-12): 0.61
- BSS scoring E (eating/drinking), Time Bin 22 (105-110 TOTAL), AVG (1 mg/kg, AVG of LT-1 to LT-12): 0.63
- BSS scoring E (eating/drinking), Time Bin 23 (110-115 TOTAL), AVG (1 mg/kg, AVG of LT-1 to LT-12): 0.59
- BSS scoring E (eating/drinking), Time Bin 24 (115-120 TOTAL), AVG (1 mg/kg, AVG of LT-1 to LT-12): 0.41
- BSS scoring G (grooming), Time Bin 19 (90-95 TOTAL), AVG (1 mg/kg, AVG of LT-1 to LT-12): 0.02
- BSS scoring G (grooming), Time Bin 20 (95-100 TOTAL), AVG (1 mg/kg, AVG of LT-1 to LT-12): 0.01
- BSS scoring G (grooming), Time Bin 21 (100-105 TOTAL), AVG (1 mg/kg, AVG of LT-1 to LT-12): 0.01
- BSS scoring G (grooming), Time Bin 22 (105-110 TOTAL), AVG (1 mg/kg, AVG of LT-1 to LT-12): 0.08
- BSS scoring G (grooming), Time Bin 23 (110-115 TOTAL), AVG (1 mg/kg, AVG of LT-1 to LT-12): 0.06
- BSS scoring G (grooming), Time Bin 24 (115-120 TOTAL), AVG (1 mg/kg, AVG of LT-1 to LT-12): 0.02
- BSS scoring R (resting), Time Bin 19 (90-95 TOTAL), AVG (1 mg/kg, AVG of LT-1 to LT-12): 0.26
- BSS scoring R (resting), Time Bin 20 (95-100 TOTAL), AVG (1 mg/kg, AVG of LT-1 to LT-12): 0.17
- BSS scoring R (resting), Time Bin 21 (100-105 TOTAL), AVG (1 mg/kg, AVG of LT-1 to LT-12): 0.24
- BSS scoring R (resting), Time Bin 22 (105-110 TOTAL), AVG (1 mg/kg, AVG of LT-1 to LT-12): 0.14
- BSS scoring R (resting), Time Bin 23 (110-115 TOTAL), AVG (1 mg/kg, AVG of LT-1 to LT-12): 0.18
- BSS scoring R (resting), Time Bin 24 (115-120 TOTAL), AVG (1 mg/kg, AVG of LT-1 to LT-12): 0.26
- BSS scoring A (active), Time Bin 19 (90-95 TOTAL) [2]: 0 (6×) and 4 and 1 (3×) and 7 and 3
- BSS scoring A (active), Time Bin 20 (95-100 TOTAL) [2]: 0 (8×) and 6 and 3 and 1 and 2
- BSS scoring A (active), Time Bin 21 (100-105 TOTAL) [2]: 0 (7×) and 5 (3×) and 1 (2×)
- BSS scoring A (active), Time Bin 22 (105-110 TOTAL) [2]: 1 (3×) and 3 (3×) and 0 (4×) and 4 and 2
- BSS scoring A (active), Time Bin 23 (110-115 TOTAL) [2]: 8 and 0 (5×) and 4 (2×) and 2 and 1 (3×)
- BSS scoring A (active), Time Bin 24 (115-120 TOTAL) [2]: 6 and 0 (6×) and 1 and 3 and 2 (2×) and 4
- BSS scoring E (eating/drinking), Time Bin 19 (90-95 TOTAL) [2]: 10 (3×) and 8 (3×) and 5 and 9 and 0 (3×) and 2
- BSS scoring E (eating/drinking), Time Bin 20 (95-100 TOTAL) [2]: 10 (5×) and 6 and 3 and 8 and 2 and 9 (2×) and 0
- BSS scoring E (eating/drinking), Time Bin 21 (100-105 TOTAL) [2]: 10 (5×) and 2 (2×) and 5 and 3 (2×) and 8 and 0
- BSS scoring E (eating/drinking), Time Bin 22 (105-110 TOTAL) [2]: 9 and 6 (4×) and 10 and 5 and 7 (2×) and 8 and 3 (2×)
- BSS scoring E (eating/drinking), Time Bin 23 (110-115 TOTAL) [2]: 0 and 7 (4×) and 10 (2×) and 3 and 5 (2×) and 6 and 4
- BSS scoring E (eating/drinking), Time Bin 24 (115-120 TOTAL) [2]: 0 (3×) and 2 (2×) and 10 and 5 (3×) and 3 and 9 and 8
- BSS scoring G (grooming), Time Bin 19 (90-95 TOTAL) [2]: 0 (10×) and 1 (2×)
- BSS scoring G (grooming), Time Bin 20 (95-100 TOTAL) [2]: 0 (11×) and 1
- BSS scoring G (grooming), Time Bin 21 (100-105 TOTAL) [2]: 0 (11×) and 1
- BSS scoring G (grooming), Time Bin 22 (105-110 TOTAL) [2]: 0 (7×) and 1 (2×) and 2 (2×) and 3
- BSS scoring G (grooming), Time Bin 23 (110-115 TOTAL) [2]: 1 (3×) and 0 (7×) and 2 (2×)
- BSS scoring G (grooming), Time Bin 24 (115-120 TOTAL) [2]: 0 (10×) and 1 (2×)
- BSS scoring R (resting), Time Bin 19 (90-95 TOTAL) [2]: 0 (5×) and 2 (3×) and 1 and 9 and 8 and 7
- BSS scoring R (resting), Time Bin 20 (95-100 TOTAL) [2]: 0 (6×) and 4 and 1 (2×) and 2 and 5 and 7
- BSS scoring R (resting), Time Bin 21 (100-105 TOTAL) [2]: 0 (5×) and 3 (3×) and 2 (2×) and 6 and 10
- BSS scoring R (resting), Time Bin 22 (105-110 TOTAL) [2]: 0 (5×) and 1 (2×) and 4 (2×) and 2 (2×) and 3
- BSS scoring R (resting), Time Bin 23 (110-115 TOTAL) [2]: 1 (3×) and 3 (4×) and 0 (3×) and 2 and 4
- BSS scoring R (resting), Time Bin 24 (115-120 TOTAL) [2]: 4 (2×) and 7 (2×) and 0 (4×) and 2 and 5 and 1 (2×)
- BSS scoring A (active), Time Bin 19 (90-95 TOTAL), AVG (3 mg/kg, AVG of LT-1 to LT-12): 0.18
- BSS scoring A (active), Time Bin 20 (95-100 TOTAL), AVG (3 mg/kg, AVG of LT-1 to LT-12): 0.19
- BSS scoring A (active), Time Bin 21 (100-105 TOTAL), AVG (3 mg/kg, AVG of LT-1 to LT-12): 0.22
- BSS scoring A (active), Time Bin 22 (105-110 TOTAL), AVG (3 mg/kg, AVG of LT-1 to LT-12): 0.20
- BSS scoring A (active), Time Bin 23 (110-115 TOTAL), AVG (3 mg/kg, AVG of LT-1 to LT-12): 0.19
- BSS scoring A (active), Time Bin 24 (115-120 TOTAL), AVG (3 mg/kg, AVG of LT-1 to LT-12): 0.27
